From patent US20240025883A1, “PYRIMIDIN-2-YL SULFONAMIDE DERIVATIVES” (Hoffmann-La Roche Inc., priority 2021, published 2024)

target: human GPR17 short isoform (Homo sapiens (Human), UniProt Q13304); experiment: GPR17 cAMP assay (hGPR17 cAMP, antagonist mode against EC80 of MDL29,951); assay type: cell-based; conditions: CHO-K1 cells stably expressing human GPR17 short isoform; EC80 of agonist MDL29,951; forskolin 15 μM
In short: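 cAMP was read by competitive TR-FRET after a 30 min room-temperature stimulation: antagonists plus EC80 MDL29,951 and 0.5 mM IBMX, followed 5 min later by 15 μM forskolin. Cells were CHO-K1 with stable human GPR17 short isoform in HBSS/HEPES/BSA, pH 7.4; percent activity versus reference antagonist fitted sigmoidally.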

human GPR17 short isoform, sequence (Q13304 29-367): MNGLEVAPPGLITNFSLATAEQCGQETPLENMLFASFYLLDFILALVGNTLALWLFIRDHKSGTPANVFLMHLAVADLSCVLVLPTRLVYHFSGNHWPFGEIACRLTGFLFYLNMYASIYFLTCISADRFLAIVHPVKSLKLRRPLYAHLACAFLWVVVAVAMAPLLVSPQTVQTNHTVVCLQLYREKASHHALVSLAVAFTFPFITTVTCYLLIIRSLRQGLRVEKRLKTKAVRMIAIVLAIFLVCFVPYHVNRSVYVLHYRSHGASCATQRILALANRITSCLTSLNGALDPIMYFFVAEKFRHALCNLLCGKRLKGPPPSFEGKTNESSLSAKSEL

Compound	IC50
COc1nc(NS(=O)(=O)c2c[nH]c3c2ccc2cccnc23)nc(OC)c1OC(F)F [Example 116, N-[5-(difluoromethoxy)-4,6-dimethoxy-pyrimidin-2-yl]-1H-pyrrolo[3,2-h]quinoline-3-sulfonamide]	26 nM
COc1nc(NS(=O)(=O)c2c[nH]c3c2ccc2cccnc23)nc(OC)c1OCCF [Example 117, N-[5-(2-fluoroethoxy)-4,6-dimethoxy-pyrimidin-2-yl]-1H-pyrrolo[3,2-h]quinoline-3-sulfonamide]	30 nM
COc1nc(NS(=O)(=O)c2c[nH]c3nc(Cl)ccc23)ncc1OC(F)F [Example 119, 6-chloro-N-[5-(difluoromethoxy)-4-methoxy-pyrimidin-2-yl]-1H-pyrrolo[2,3-b]pyridine-3-sulfonamide]	161 nM
COc1nc(NS(=O)(=O)c2c[nH]c3nc(Cl)ccc23)nc(OC)c1CCC(F)F [Example 121, 6-chloro-N-[5-(3,3-difluoropropyl)-4,6-dimethoxy-pyrimidin-2-yl]-1H-pyrrolo[2,3-b]pyridine-3-sulfonamide]	16 nM
COc1nc(NS(=O)(=O)c2c[nH]c3c(F)c(Cl)ccc23)ncc1CC(F)F [Example 124, 6-chloro-N-[5-(2,2-difluoroethyl)-4-methoxy-pyrimidin-2-yl]-7-fluoro-1H-indole-3-sulfonamide]	34 nM
COc1nc(NS(=O)(=O)c2c[nH]c3c(Br)c(F)ccc23)ncc1CC(F)F [Example 128, 7-bromo-N-[5-(2,2-difluoroethyl)-4-methoxy-pyrimidin-2-yl]-6-fluoro-1H-indole-3-sulfonamide]	446 nM
COc1nc(NS(=O)(=O)c2c[nH]c3c(Cl)c(F)ccc23)ncc1CC(F)F [Example 130, 7-chloro-N-[5-(2,2-difluoroethyl)-4-methoxy-pyrimidin-2-yl]-6-fluoro-1H-indole-3-sulfonamide]	386 nM
COc1nc(NS(=O)(=O)c2c[nH]c3c(N4CCOCC4)c(Cl)ccc23)nc(OC)c1CC(F)F [Example 133, 6-chloro-N-[5-(2,2-difluoroethyl)-4,6-dimethoxy-pyrimidin-2-yl]-7-morpholino-1H-indole-3-sulfonamide]	76 nM
COc1nc(NS(=O)(=O)c2c[nH]c3cc(Cl)ccc23)ncc1C(C)(F)F [Example 136, 6-chloro-N-[5-(1,1-difluoroethyl)-4-methoxy-pyrimidin-2-yl]-1H-indole-3-sulfonamide]	747 nM
COc1nc(NS(=O)(=O)c2csc3nc(Cl)ccc23)ncc1CC(F)F [Example 139, 6-chloro-N-[5-(2,2-difluoroethyl)-4-methoxy-pyrimidin-2-yl]thieno[2,3-b]pyridine-3-sulfonamide]	106 nM
COc1nc(NS(=O)(=O)c2c[nH]c3cc(F)ccc23)ncc1CC(F)F [Example 140, N-[5-(2,2-difluoroethyl)-4-methoxy-pyrimidin-2-yl]-6-fluoro-1H-indole-3-sulfonamide]	50 nM
COc1nc(NS(=O)(=O)c2c[nH]c3c(Br)c(Cl)ccc23)ncc1OCCF [Example 141, 7-bromo-6-chloro-N-[5-(2-fluoroethoxy)-4-methoxy-pyrimidin-2-yl]-1H-indole-3-sulfonamide]	14 nM
COc1nc(NS(=O)(=O)c2c[nH]c3c(Br)c(Cl)ccc23)ncc1CC(F)F [Example 142, 7-bromo-6-chloro-N-[5-(2,2-difluoroethyl)-4-methoxy-pyrimidin-2-yl]-1H-indole-3-sulfonamide]	29 nM
COc1nc(NS(=O)(=O)c2csc3nc(Br)ccc23)nc(OC)c1C [Example 144, 6-bromo-N-(4,6-dimethoxy-5-methyl-pyrimidin-2-yl)thieno[2,3-b]pyridine-3-sulfonamide]	50 nM
COc1nc(NS(=O)(=O)c2csc3nc(Br)ccc23)ncc1OCC(F)F [Example 145, 6-bromo-N-[5-(2,2-difluoroethoxy)-4-methoxy-pyrimidin-2-yl]thieno[2,3-b]pyridine-3-sulfonamide]	152 nM
COc1nc(NS(=O)(=O)c2csc3nc(Br)ccc23)nc(OC)c1CC(F)F [Example 150, 6-bromo-N-[5-(2,2-difluoroethyl)-4,6-dimethoxy-pyrimidin-2-yl]thieno[2,3-b]pyridine-3-sulfonamide]	39 nM
CCc1ccc2c(S(=O)(=O)Nc3ncc(CC(F)F)c(OC)n3)c[nH]c2c1 [Example 152, N-[5-(2,2-difluoroethyl)-4-methoxy-pyrimidin-2-yl]-6-ethyl-1H-indole-3-sulfonamide]	104 nM

More lines, in order of falling IC50, values ahead:

IC50	Compound
20800 nM	COc1nc(NS(=O)(=O)c2c[nH]c3cc(Cl)ccc23)nc(C2CCOCC2)c1Br [Example 138, N-(5-bromo-4-methoxy-6-tetrahydropyran-4-yl-pyrimidin-2-yl)-6-chloro-1H-indole-3-sulfonamide]
961 nM	COc1nc(NS(=O)(=O)c2c[nH]c3c(Br)cccc23)ncc1CC(F)F [Example 129, 7-bromo-N-[5-(2,2-difluoroethyl)-4-methoxy-pyrimidin-2-yl]-1H-indole-3-sulfonamide]
442 nM	CCc1nc(NS(=O)(=O)c2c[nH]c3cc(Cl)ccc23)nc(OC)c1C [Example 137, 6-chloro-N-(4-ethyl-6-methoxy-5-methyl-pyrimidin-2-yl)-1H-indole-3-sulfonamide]
353 nM	CCCc1ccc2c(S(=O)(=O)Nc3ncc(CC(F)F)c(OC)n3)c[nH]c2c1 [Example 153, N-[5-(2,2-difluoroethyl)-4-methoxypyrimidin-2-yl]-6-propyl-1H-indole-3-sulfonamide]
187 nM	COc1nc(NS(=O)(=O)c2c[nH]c3cc(Cl)ccc23)ncc1OCC(F)F [Example 135, 6-chloro-N-[5-(2,2-difluoroethoxy)-4-methoxy-pyrimidin-2-yl]-1H-indole-3-sulfonamide]
147 nM	COc1nc(NS(=O)(=O)c2csc3nc(Br)ccc23)ncc1CCC#N [Example 149, 6-bromo-N-[5-(2-cyanoethyl)-4-methoxy-pyrimidin-2-yl]thieno[2,3-b]pyridine-3-sulfonamide]
124 nM	COc1nc(NS(=O)(=O)c2c[nH]c3c(Br)cccc23)nc(OC)c1CC(F)F [Example 134, 7-bromo-N-[5-(2,2-difluoroethyl)-4,6-dimethoxy-pyrimidin-2-yl]-1H-indole-3-sulfonamide]
116 nM	COc1nc(NS(=O)(=O)c2c[nH]c3nc(C)ccc23)nc(OC)c1OCCF [Example 131, N-[5-(2-fluoroethoxy)-4,6-dimethoxy-pyrimidin-2-yl]-6-methyl-1H-pyrrolo[2,3-b]pyridine-3-sulfonamide]
109 nM	COc1nc(NS(=O)(=O)c2c[nH]c3cc(Br)ccc23)ncc1OCC(F)F [Example 143, 6-bromo-N-[5-(2,2-difluoroethoxy)-4-methoxy-pyrimidin-2-yl]-1H-indole-3-sulfonamide]
104 nM	COc1nc(NS(=O)(=O)c2csc3nc(Br)ccc23)ncc1OC(F)(F)CF [Example 147, 6-bromo-N-[4-methoxy-5-(1,1,2-trifluoroethoxy)pyrimidin-2-yl]thieno[2,3-b]pyridine-3-sulfonamide]
89 nM	COc1nc(NS(=O)(=O)c2csc3nc(Br)ccc23)ncc1OCCF [Example 146, 6-bromo-N-[5-(2-fluoroethoxy)-4-methoxy-pyrimidin-2-yl]thieno[2,3-b]pyridine-3-sulfonamide]
82 nM	COc1nc(NS(=O)(=O)c2c[nH]c3c(F)c(Cl)ccc23)ncc1OC(F)F [Example 126, 6-chloro-N-[5-(difluoromethoxy)-4-methoxy-pyrimidin-2-yl]-7-fluoro-1H-indole-3-sulfonamide]
49 nM	COc1nc(NS(=O)(=O)c2csc3nc(Br)ccc23)ncc1CC(F)F [Example 148, 6-bromo-N-[5-(2,2-difluoroethyl)-4-methoxy-pyrimidin-2-yl]thieno[2,3-b]pyridine-3-sulfonamide]
45 nM	COc1nc(NS(=O)(=O)c2csc3cc(Cl)ccc23)ncc1CC(F)F [Example 154, 6-chloro-N-[5-(2,2-difluoroethyl)-4-methoxy-pyrimidin-2-yl]benzothiophene-3-sulfonamide]
40 nM	COc1nc(NS(=O)(=O)c2c[nH]c3nc(Cl)ccc23)nc(OC)c1CC(F)F [Example 120, 6-chloro-N-[5-(2,2-difluoroethyl)-4,6-dimethoxy-pyrimidin-2-yl]-1H-pyrrolo[2,3-b]pyridine-3-sulfonamide]
39 nM	COc1nc(NS(=O)(=O)c2c[nH]c3nc(C)ccc23)nc(OC)c1CC(F)F [Example 132, N-[5-(2,2-difluoroethyl)-4,6-dimethoxy-pyrimidin-2-yl]-6-methyl-1H-pyrrolo[2,3-b]pyridine-3-sulfonamide]
36 nM	COc1nc(NS(=O)(=O)c2c[nH]c3nc(Cl)ccc23)nc(OC)c1CCC#N [Example 122, 6-chloro-N-[5-(2-cyanoethyl)-4,6-dimethoxy-pyrimidin-2-yl]-1H-pyrrolo[2,3-b]pyridine-3-sulfonamide]
33 nM	COc1nc(NS(=O)(=O)c2c[nH]c3nc(Cl)ccc23)nc(OC)c1C [Example 118, 6-chloro-N-(4,6-dimethoxy-5-methyl-pyrimidin-2-yl)-1H-pyrrolo[2,3-b]pyridine-3-sulfonamide]
30 nM	COc1nc(NS(=O)(=O)c2c[nH]c3c(OC4CC4)c(Cl)ccc23)ncc1CC(F)F [Example 127, 6-chloro-7-(cyclopropoxy)-N-[5-(2,2-difluoroethyl)-4-methoxy-pyrimidin-2-yl]-1H-indole-3-sulfonamide]
29 nM	COc1nc(NS(=O)(=O)c2csc3nc(Br)ccc23)nc(OC)c1CCC#N [Example 151, 6-bromo-N-[5-(2-cyanoethyl)-4,6-dimethoxy-pyrimidin-2-yl]thieno[2,3-b]pyridine-3-sulfonamide]
23 nM	COc1nc(NS(=O)(=O)c2c[nH]c3c(F)c(Cl)ccc23)nc(OC)c1OC(F)F [Example 125, 6-chloro-N-[5-(difluoromethoxy)-4,6-dimethoxy-pyrimidin-2-yl]-7-fluoro-1H-indole-3-sulfonamide]
